Results as given in patent EP1101496A1, “THERAPEUTIC AGENTS FOR ALLERGIC DISEASES” (FUJI YAKUHIN KOGYO KABUSHIKI KAISHA, priority 1998, dated 2000).

Experiments:
[1] = system: Experimental Bronchial Asthma Model; assay: Experimental bronchial asthma model (ovalbumin-sensitized, airway resistance and asthmatic death); format: in vivo, Guinea pigs
Procedure: Guinea pigs (female, Std:Hartley, 3 weeks old, 200 to 250 g) were individually housed in a plastic chamber (width, 200 mm; depth, 300 mm; height, 167 mm). Aqueous ovalbumin (10 mg/mL) was administered to the guinea pigs once a day for sensitization by 10 min. inhalation with a nebulizer (5B, Nippon Shoji K.K.: flow rate, 6 L/min.) at a dose of 10 mg/mL during 8 cosecutive days. On Day 7 after the final sensitization, the guinea pigs were housed in a plastic chamber and inhaled using a nebulizer with a solution of ovalbumin (10 mg/mL) in physiological saline for 1 min. for elicitation (Matsumoto, T., et al., The Journal of Pharmacology and Experimental Therapeutics, 269: 1236-1244, 1994). The number of animals employed in the experiment was set to the extent there are at least 6 as individuals escaping asthmatic death. A solution of a test metalloproteinase inhibitor (Compound No. 8, 15 mg/kg) in water for injection was administered subcutaneously twice, i.e., 24 hours and 2 hours prior to elicitation. Similarly, the solvent alone was also administered to a negative control group. A suspension of prednisolone (10 mg/kg) in 0.5% aqueous methyl cellulose was administered orally twice, i.e., 24 hours and 2 hours prior to elicitation. Similarly, the solvent alone was also administered to another control group.
The evaluation for efficacies was conducted in terms of airway resistance. For this purpose, an apparatus dedicated to the measurement of airway resistance (K.K. Medical Agent) was employed. Measurement includes setting a guinea pig in a test chamber under a not-anesthetized condition, applying sinusoidal pressure waves of 30 Hz components to a part below the neck of the animal from the back side of the chamber, measuring respiratory waves of 30 Hz components leaking through the mouth (volume of 30 Hz air flow passing through the respiratory tract) in front of the neck, and calculating airway resistance mechanically. Measurement was carried out immediately prior to the first drug treatment (24 hours before elicitation), just prior to elicitation, 10 minutes, 1, 2, 4, 6, and 8 hours post-elicitation.
It was visually observed by a person carrying out said test in terms of the appearance of cyanosis or suffocative death (asthmatic death) due to respiratory obstruction.
Guinea pigs were sensitized with ovalbumin and asthma was induced on Day 7 after final sensitization in the same manner as in Example 18. The number of animals employed in the experiment was set to the extent there are at least 6 as individuals escaping asthmatic death (8 to 11 animals/group). In the same manner as in Example 18, the animals were measured for airway resistance mechanically and each percent change (%) in airway resistance was calculated (each value just prior to elicitation was set as 100%). Each percent amelioration in airway resistance was calculated from the percent changes in airway resistance according to the following formula: Amelioration in Airway Resistance (%) = 1 -[((Percent Change in Airway Resistance after Drug-Administration)-(Value just prior to Challenge (100)))/((Percent Change in Airway Resistance after Solvent -Administration)-(Value just prior to Challenge (100)))]× 100 [formula]
A solution of a test metalloproteinase inhibitor (Compound No. 22: 15 mg/kg or 30 mg/kg) in water for injection or the solvent alone as a negative control was administered to each animal subcutaneously twice, i.e., 24 hours and 2 hours prior to elicitation.

[2] = system: Type IV Allergic Dermatitis; assay: Type IV allergic dermatitis (oxazolone-induced auricle edema); format: in vivo, Mice (male, Balb/c)
Procedure: Mice (male, Balb/c, 6 weeks old, 20 to 25 g) were sensitized by painting a 3% solution of oxazolone (100 µL) abdominally. Six days after sensitization, a 0.5% solution of oxazolone in acetone was painted on both sides of a right ear at a dose of 10 µL to raise auricle edema. An untreated group was painted with the solvent (acetone) alone onto both sides of a left ear of the same mouse at 10 µL. At 24 hours after edema-induction, each mouse was sacrificed with ether and an equivalent each of right and left auricles was stamped out with a puncher (diameter: 6 mm). Both left and right auricle sections were measure for their weight and each percent edema was calculated (Kazuo Ouchi (Ed.), "Seibutsu Yakukagaku Jikken Koza, Ensho To Allergy (Inflammation and Allergy) I-1", 1993, Hirokawa Publishing Co., Japan) Percent Edema (%) =((Right Auricular Segment Weight - Left Auricular Segment Weight))/(Left Auricular Segment Weight)× 100 [formula]
A solution of a test metalloproteinase inhibitor (Compound No. 8, 50 mg/mL) in ethanol was painted onto both sides of a right auricle at 10 µL per side twice, i.e., 0.5 hr prior to edema-induction and 6 hours after edema-induction. The solvent (ethanol) alone was painted on a left auricle at the same dose ([…]). […]

Allergic Rhinitis = assay: Allergic rhinitis model (nasal airway resistance); format: in vivo, Guinea pigs; conditions: 15 mg/kg s.c. one hour prior to rhinitis-induction; 20 minutes after antigen-challenge
Procedure: Guinea pigs (male, Std:Hartley, 3 weeks old) were housed and fed in a aluminum cage at a rate of up to 5 animals per cage. After acclimatization for 1 week, the guinea pigs were administered intravenously with an anti-ovalbumin antibody (Nihon Bioresearch Inc., Hajima Institute; antibody titer by a 3-hour homologous passive cutaneous anaphylaxis reaction, 1 : 8192) prepared according to the Orange & Moore method (Orange, R. P. and Moore, E. G., The Journal of Immunology 116: p.392-397, 1976) into their auricle vein at a dose of 0.3 mL/animal for passive sensitization. Twenty four to twenty six hours after sensitization under conditions of fast and free access to drinking water, the sensitized guinea pigs were anesthetized with urethane (1.2 g/kg, intraperitoneal administration), fixed in a supine position, and mediad excised cervically to expose tracheas. […] Variations of the ventilatory overflow were quantitatively recorded on a recticoder (RECTI-HORIZ-8K, Nippon Denki Sanei K.K.) for 20 minutes after antigen-challenge.
Wave height (cm) was measured on recorded papers and a nasal airway resistance value was calculated according to the following formula: Percent Increase (%) in Nasal Airway Resistance =((Observed Value)-(Value prior to Administration))/((Complete Obstruction)-(Value prior to Administration))× 100 [formula] […]

[3] = suffocative death due to cyanosis just after elicitation, Compound No. 8 15 mg/kg s.c., prednisolone 10 mg/kg orally, 24 and 2 hours prior to elicitation

With CNC(=O)[C@H](Cc1ccc(NC(=N)N)cc1)NC(=O)[C@H](CC(C)C)C(CCCc1ccccc1)C(=O)NO (single isomer, unassigned) [Compound No. 8, N-[4-(N-hydroxyamino)-2(R)-isobutyl-3(R or S)-(3-phenyltrimethylene)succinyl]-L-4'-guanidophenylalanine-N-methylamide 1 acetate] the “airway resistance (FIG. 11)” value ([1]; 15 mg/kg s.c. 24 hours and 2 hours prior to elicitation, IAR 1 hour and LAR 6 hours post-elicitation) was “significant reduction of the increased airway resistance”, the “% Mortality” value [1, 3] was 0.0% and the “(Dead Animals)/(Tested Animals)” value [1, 3] was 0/10. The “therapeutic potency on the development of auricle edemas (FIG. 12)” value ([2]; 50 mg/mL in ethanol, 10 µL per side painted on right auricle 0.5 hr prior to and 6 hours after edema-induction, 24 hours after induction) was “amelioration of auricle edemas”, the “effect of the compound alone on auricles (unsensitized group, FIG. 12)” value ([2]; unsensitized mice, 50 mg/mL in ethanol painted on auricle) was “almost free of swelling and/or thinning” and the “increase in nasal airway resistance due to antigen challenge (FIG. 14)” value (Allergic Rhinitis) was “markedly ameliorates an increase in nasal airway resistance”.
